Assay results as given in PMC4503722, “Novel Phenotypic Outcomes Identified for a Public Collection of Approved Drugs from a Publicly Accessible Panel of Assays” (PLoS ONE, 2015).
Where a SMILES comes first, the peptide text is derived from it. Bridges are numbered along the chain shown (N, C = ends). [ ]: non-standard residue; d: D form. hArg = N=C(N)NCCCC[C@H](N)C(=O)O; Mpa = O=C(O)CCS

Experiments:
[1] = tested on: endothelial tube formation in co-cultures of ECFCs and ADSCs treated with VEGF; assay: cells; assay type: cell-based, human; conditions: for IC50: read-out: VEGF_ADSC\ECFC Angio CD31 TubeArea summarized IC50
[2] = tested on: ECFC/ADSC co-culture cell nuclei number; conditions: for IC50: read-out: VEGF_ADSC\ECFC Angio Hoechst NucArea summarized IC50

| SMILES | VEGF_ADSC\ECFC Angio CD31 TubeArea IC50/EC50 [1] [µM] | VEGF_ADSC\ECFC Angio Hoechst NucArea IC50/EC50 [2] [µM] | further results |
| --- | --- | --- | --- |
| CCCCc1oc2ccc(NS(C)(=O)=O)cc2c1C(=O)c1ccc(OCCCN(CCCC)CCCC)cc1 [NCGC00188863-02] | 2.754 | 7.561 |  |
| CCN[C@@H](C)Cc1cccc(C(F)(F)F)c1 [NCGC00247710-02] | > 10 | > 10 |  |
| Cc1[nH]cnc1C[C@H]1CCc2c(C)c3ccccc3n2C1=O [NCGC00249415-01] | > 10 | > 10 |  |
| CC(C(O)c1ccccc1)N(C)C/C=C/c1ccccc1 (stereo not drawn) [NCGC00249896-01] | > 10 | > 10 |  |
| Cc1ccc(C(=O)Oc2ccc(C(O)CNC(C)(C)C)cc2OC(=O)c2ccc(C)cc2)cc1 (stereo not drawn) [NCGC00253593-01] | > 10 | > 10 |  |
| Cc1onc(-c2c(Cl)cccc2Cl)c1C(=O)Cl [NCGC00253649-01] | > 10 | > 10 |  |
| COc1cc(S(N)(=O)=O)cc(C(=O)O)c1OC [NCGC00253657-01] | > 10 | > 10 |  |
| O=C(O)C1CCC1 [NCGC00253667-01] |  |  | IC50 [1]: > 10 µM; IC50 [2]: > 10 µM |
| COc1ccc([C@@H]2Sc3ccccc3NC(=O)[C@@H]2O)cc1 [NCGC00253672-01] | > 10 | > 10 |  |
| C/C=C(/C(=C/C)c1ccc(OC(C)=O)cc1)c1ccc(OC(C)=O)cc1 [NCGC00253696-01] |  |  | IC50 [1]: > 10 µM; IC50 [2]: > 10 µM |
| COc1ccccc1N1CCN(CC(O)COc2cc(OC)c(OC)c(OC)c2)CC1 (stereo not drawn) [NCGC00253761-01] | > 10 | > 10 |  |
| CC[C@]12CCCN3CCc4c(n(c5ccccc45)C(=O)C1)[C@@H]32 [NCGC00262533-02] | > 10 | > 10 |  |
| O=C1CC(c2ccc(Cl)cc2)CC(=O)N1 [NCGC00262922-01] |  |  | IC50/EC50, VEGF_ADSC\ECFC Angio CD31 TubeArea (assay number 2) [1]: > 10 µM; IC50/EC50, VEGF_ADSC\ECFC Angio Hoechst NucArea (assay number 3) [2]: > 10 µM |
| NC(=O)[C@@H]1CSSCCC(=O)N[C@@H](CCCCN=C(N)N)C(=O)NCC(=O)N[C@@H](CC(=O)O)C(=O)N[C@@H](Cc2c[nH]c3ccccc23)C(=O)N2CCC[C@H]2C(=O)N1 [NCGC00263524-01] ([Mpa][hArg]GDWPC-NH2; disulfide 1-7) | > 10 | > 10 |  |
| CCOC(=O)C1=C(C)NC(C)=C(C(=O)OCC)C1c1ccccc1/C=C/C(=O)OC(C)(C)C [NCGC00263529-01] |  |  | IC50/EC50, VEGF_ADSC\ECFC Angio CD31 TubeArea (assay number 2) [1]: > 10 µM; IC50/EC50, VEGF_ADSC\ECFC Angio Hoechst NucArea (assay number 3) [2]: > 10 µM |
| CCOC(=O)[C@H](CCc1ccccc1)N[C@@H](C)C(=O)N1Cc2cc(OC)c(OC)cc2C[C@H]1C(=O)O.Cl [NCGC00263546-01] | > 10 | > 10 |  |
| COc1cccc2c1C(=O)c1c(O)c3c(c(O)c1C2=O)C[C@@](O)(C(=O)CO)C[C@@H]3O[C@H]1C[C@H](N)[C@H](O)[C@H](C)O1.Cl [NCGC00263918-03] | 0.0429 | 0.114 |  |
| CC(=O)O[C@H]1C[C@H](O[C@H]2[C@@H](O)C[C@H](O[C@@H]3[C@@H](O)C[C@H](O[C@H]4CC[C@@]5(C)[C@H](CC[C@@H]6[C@H]5C[C@@H](O)[C@]5(C)[C@@H](C7=CC(=O)OC7)CC[C@]65O)C4)O[C@@H]3C)O[C@@H]2C)O[C@H](C)[C@H]1O[C@@H]1O[C@H](CO)[C@@H](O)[C@H](O)[C@@H]1O [NCGC00344547-01] | 0.0702 | 0.2792 |  |
